# Results from PubChem BioAssay AID2060510 (Molecular Pharmacology Branch, DTP, NCI, 2025).
# Tested on: 439559-082-T-J2-PDC spheroids viability
# Assay: Anticancer human tumor 439559-082-T-J2-PDC patient-derived colon adenocarcinoma cell line growth inhibition [GQUAD]
# Details: for IC50: curve of first compound; for viability, T/C: stronger effect = lower value
# Summary of the method: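 Tumor cells were grown as complex spheroids with HUVEC endothelial cells and mesenchymal stem cells as stroma. G-quadruplex stabilizers were combined with targeted agents over half-log dilutions from near the clinical Cmax, or from 10 microM.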
# [1] = second compound 0.0316 µM, first compound 0.0316 µM
# [2] = second compound 0.0316 µM, first compound 0.316 µM
# [3] = second compound 0.1 µM, first compound 0.0316 µM
# [4] = second compound 0.1 µM, first compound 0.316 µM
# [5] = second compound 0.316 µM, first compound 0.0316 µM
# [6] = second compound 0.316 µM, first compound 0.316 µM
# [7] = second compound 1 µM, first compound 0.0316 µM
# [8] = second compound 1 µM, first compound 0.316 µM
# [9] = second compound 3.16 µM, first compound 0.0316 µM
# [10] = second compound 3.16 µM, first compound 0.316 µM
# [11] = second compound 10 µM, first compound 0.0316 µM
# [12] = second compound 10 µM, first compound 0.316 µM
# [13] = second compound 0.0316 µM, first compound 0.1 µM
# [14] = second compound 0.0316 µM, first compound 1 µM
# [15] = second compound 0.0316 µM, first compound 3.16 µM
# [16] = second compound 0.0316 µM, first compound 10 µM
# [17] = second compound 0.1 µM, first compound 0.1 µM
# [18] = second compound 0.1 µM, first compound 1 µM
# [19] = second compound 0.1 µM, first compound 3.16 µM
# [20] = second compound 0.1 µM, first compound 10 µM
# [21] = second compound 0.316 µM, first compound 0.1 µM
# [22] = second compound 0.316 µM, first compound 1 µM
# [23] = second compound 0.316 µM, first compound 3.16 µM
# [24] = second compound 0.316 µM, first compound 10 µM
# [25] = second compound 1 µM, first compound 0.1 µM
# [26] = second compound 1 µM, first compound 1 µM
# [27] = second compound 1 µM, first compound 3.16 µM
# [28] = second compound 1 µM, first compound 10 µM
# [29] = second compound 3.16 µM, first compound 0.1 µM
# [30] = second compound 3.16 µM, first compound 1 µM
# [31] = second compound 3.16 µM, first compound 3.16 µM
# [32] = second compound 3.16 µM, first compound 10 µM
# [33] = second compound 10 µM, first compound 0.1 µM
# [34] = second compound 10 µM, first compound 1 µM
# [35] = second compound 10 µM, first compound 3.16 µM
# [36] = second compound 10 µM, first compound 10 µM
# 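Note: spheroids exposed to the agents for 7 days before readout.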
# 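Throughout, for viability, T/C: percent of luminescence signal in DMSO vehicle wells taken as 100% viability.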
compound,measurement,setting,value
Cc1[nH]c2ccccc2c1CCNCc1ccc(/C=C/C(=O)NO)cc1 + Cc1[nH]c2ccc(F)cc2c1-c1nc2c3cccnc3c3ncccc3c2[nH]1,IC50,second compound 0.0316 µM,> 0.316 µM
same,IC50,second compound 0.1 µM,> 0.316 µM
same,IC50,second compound 0.316 µM,> 0.316 µM
same,IC50,second compound 1 µM,> 0.316 µM
same,IC50,second compound 3.16 µM,> 0.316 µM
same,IC50,second compound 10 µM,> 0.316 µM
same,"viability, T/C","second compound 0.0316 µM, first compound 0.000999 µM",97.3%
same,"viability, T/C","second compound 0.0316 µM, first compound 0.00316 µM",107%
same,"viability, T/C","second compound 0.0316 µM, first compound 0.00999 µM",92.6%
same,"viability, T/C",[1],85.9%
same,"viability, T/C","second compound 0.0316 µM, first compound 0.0999 µM",102%
same,"viability, T/C",[2],97.9%
same,"viability, T/C","second compound 0.1 µM, first compound 0.000999 µM",120%
same,"viability, T/C","second compound 0.1 µM, first compound 0.00316 µM",86.1%
same,"viability, T/C","second compound 0.1 µM, first compound 0.00999 µM",107%
same,"viability, T/C",[3],92.9%
same,"viability, T/C","second compound 0.1 µM, first compound 0.0999 µM",101%
same,"viability, T/C",[4],105%
same,"viability, T/C","second compound 0.316 µM, first compound 0.000999 µM",115%
same,"viability, T/C","second compound 0.316 µM, first compound 0.00316 µM",91.1%
same,"viability, T/C","second compound 0.316 µM, first compound 0.00999 µM",95.6%
same,"viability, T/C",[5],100%
same,"viability, T/C","second compound 0.316 µM, first compound 0.0999 µM",91.6%
same,"viability, T/C",[6],100%
same,"viability, T/C","second compound 1 µM, first compound 0.000999 µM",92.5%
same,"viability, T/C","second compound 1 µM, first compound 0.00316 µM",88.8%
same,"viability, T/C","second compound 1 µM, first compound 0.00999 µM",87.3%
same,"viability, T/C",[7],93.2%
same,"viability, T/C","second compound 1 µM, first compound 0.0999 µM",91.9%
same,"viability, T/C",[8],91.3%
same,"viability, T/C","second compound 3.16 µM, first compound 0.000999 µM",84%
same,"viability, T/C","second compound 3.16 µM, first compound 0.00316 µM",70.6%
same,"viability, T/C","second compound 3.16 µM, first compound 0.00999 µM",87.9%
same,"viability, T/C",[9],78.5%
same,"viability, T/C","second compound 3.16 µM, first compound 0.0999 µM",90.2%
same,"viability, T/C",[10],85.7%
same,"viability, T/C","second compound 10 µM, first compound 0.000999 µM",74%
same,"viability, T/C","second compound 10 µM, first compound 0.00316 µM",80.9%
same,"viability, T/C","second compound 10 µM, first compound 0.00999 µM",82.6%
same,"viability, T/C",[11],83.2%
same,"viability, T/C","second compound 10 µM, first compound 0.0999 µM",91.5%
same,"viability, T/C",[12],83.3%
O=C(NO)c1cnc(N2CCN(S(=O)(=O)c3ccc4ccccc4c3)CC2)nc1 + Cc1[nH]c2ccc(F)cc2c1-c1nc2c3cccnc3c3ncccc3c2[nH]1,IC50,second compound 0.0316 µM,2.1 µM
same,IC50,second compound 0.1 µM,1.87 µM
same,IC50,second compound 0.316 µM,3.79 µM
same,IC50,second compound 1 µM,2.04 µM
same,IC50,second compound 3.16 µM,1.35 µM
same,IC50,second compound 10 µM,1.09 µM
same,"viability, T/C",[1],90.8%
same,"viability, T/C",[13],86%
same,"viability, T/C",[2],75.8%
same,"viability, T/C",[14],60.1%
same,"viability, T/C",[15],44.6%
same,"viability, T/C",[16],31.5%
same,"viability, T/C",[3],84.4%
same,"viability, T/C",[17],79.8%
same,"viability, T/C",[4],75.9%
same,"viability, T/C",[18],64.4%
same,"viability, T/C",[19],37.9%
same,"viability, T/C",[20],31.4%
same,"viability, T/C",[5],85.4%
same,"viability, T/C",[21],76.4%
same,"viability, T/C",[6],76%
same,"viability, T/C",[22],65%
same,"viability, T/C",[23],55.9%
same,"viability, T/C",[24],30.8%
same,"viability, T/C",[7],86.2%
same,"viability, T/C",[25],85.2%
same,"viability, T/C",[8],77.1%
same,"viability, T/C",[26],64.8%
same,"viability, T/C",[27],41%
same,"viability, T/C",[28],25.7%
same,"viability, T/C",[9],70.3%
same,"viability, T/C",[29],73.7%
same,"viability, T/C",[10],62.1%
same,"viability, T/C",[30],58.1%
same,"viability, T/C",[31],31.6%
same,"viability, T/C",[32],25.8%
same,"viability, T/C",[11],68.2%
same,"viability, T/C",[33],67.4%
same,"viability, T/C",[12],58.4%
same,"viability, T/C",[34],53.1%
same,"viability, T/C",[35],24.2%
same,"viability, T/C",[36],22.4%
CC(C)n1c(=O)n(C)c2cnc3cc(F)c(-c4ccc(OCCCN5CCCCC5)nc4)cc3c21 + Cc1cnc(CNC(=O)c2c(=O)c3ccc(N4CCCN(C)CC4)nc3n3c2sc2ccccc23)cn1,IC50,second compound 0.0316 µM,> 10 µM
same,IC50,second compound 0.1 µM,> 10 µM
same,IC50,second compound 0.316 µM,> 10 µM
same,IC50,second compound 1 µM,> 10 µM
same,IC50,second compound 3.16 µM,> 10 µM
same,IC50,second compound 10 µM,5.99 µM
same,"viability, T/C",[1],91.2%
same,"viability, T/C",[13],77.3%
same,"viability, T/C",[2],88.8%
same,"viability, T/C",[14],90.8%
same,"viability, T/C",[15],94.2%
same,"viability, T/C",[16],82.6%
same,"viability, T/C",[3],77.9%
same,"viability, T/C",[17],76.1%
same,"viability, T/C",[4],60.8%
same,"viability, T/C",[18],68.2%
same,"viability, T/C",[19],71%
same,"viability, T/C",[20],62.9%
same,"viability, T/C",[5],73.3%
same,"viability, T/C",[21],67.6%
same,"viability, T/C",[6],59.1%
same,"viability, T/C",[22],66.3%
same,"viability, T/C",[23],71.6%
same,"viability, T/C",[24],53%
same,"viability, T/C",[7],71.8%
same,"viability, T/C",[25],55.7%
same,"viability, T/C",[8],66.7%
same,"viability, T/C",[26],62.4%
same,"viability, T/C",[27],62.9%
same,"viability, T/C",[28],42.7%
same,"viability, T/C",[9],56.9%
same,"viability, T/C",[29],60.6%
same,"viability, T/C",[10],67.6%
same,"viability, T/C",[30],60.8%
same,"viability, T/C",[31],58.1%
same,"viability, T/C",[32],46.1%
same,"viability, T/C",[11],59.8%
same,"viability, T/C",[33],57.2%
same,"viability, T/C",[12],60.3%
same,"viability, T/C",[34],59.2%
same,"viability, T/C",[35],58%
same,"viability, T/C",[36],39.8%
COc1ccc([C@@H](O)c2cc(-c3ncnc4cc(N5CCOCC5)ccc34)c(F)cc2Cl)nn1 + Cc1cnc(CNC(=O)c2c(=O)c3ccc(N4CCCN(C)CC4)nc3n3c2sc2ccccc23)cn1,IC50,second compound 0.0316 µM,> 10 µM
same,IC50,second compound 0.1 µM,> 10 µM
same,IC50,second compound 0.316 µM,> 10 µM
same,IC50,second compound 1 µM,6.35 µM
same,IC50,second compound 3.16 µM,4.19 µM
same,IC50,second compound 10 µM,9.8 µM
same,"viability, T/C",[1],99.2%
same,"viability, T/C",[13],95.8%
same,"viability, T/C",[2],93.6%
same,"viability, T/C",[14],89.9%
same,"viability, T/C",[15],75.8%
same,"viability, T/C",[16],59.8%
same,"viability, T/C",[3],91.4%
same,"viability, T/C",[17],84%
same,"viability, T/C",[4],87.3%
same,"viability, T/C",[18],71.2%
same,"viability, T/C",[19],70.4%
same,"viability, T/C",[20],59%
same,"viability, T/C",[5],89.4%
same,"viability, T/C",[21],79.1%
same,"viability, T/C",[6],75.4%
same,"viability, T/C",[22],68.9%
same,"viability, T/C",[23],66.6%
same,"viability, T/C",[24],50.3%
same,"viability, T/C",[7],80.1%
same,"viability, T/C",[25],66.6%
same,"viability, T/C",[8],74.4%
same,"viability, T/C",[26],64.8%
same,"viability, T/C",[27],63.1%
same,"viability, T/C",[28],42.7%
same,"viability, T/C",[9],72%
same,"viability, T/C",[29],62.7%
same,"viability, T/C",[10],61.8%
same,"viability, T/C",[30],59.3%
same,"viability, T/C",[31],53.5%
same,"viability, T/C",[32],43.2%
same,"viability, T/C",[11],56.9%
same,"viability, T/C",[33],65.4%
same,"viability, T/C",[12],66.3%
same,"viability, T/C",[34],52.3%
same,"viability, T/C",[35],62.1%
same,"viability, T/C",[36],41%
